Experiment: Growth inhibition of human NCI60 cells
Assay type: functional
Settings: not given

| SMILES | GI50 [nM] |
| --- | --- |
| CC[C@](C)(O)C(=O)O[C@H]1C(=O)O[C@@H]2C[C@H]3C(C)=CC(=O)[C@@H](O)[C@]3(C)[C@H]3[C@@]4(O)OC[C@]32[C@@H]1[C@@H](C)[C@H]4O (stereo in doubt) [GLAUCARUBINONE] | 21000 |

Same assay, conditions: Homo sapiens, NCI60

| SMILES | GI50 [nM] |
| --- | --- |
| COC(=O)[C@@]12OC[C@]34[C@H]([C@@H](O)[C@@H]1O)[C@@]1(C)[C@H](O)C(=O)C=C(C)[C@@H]1C[C@H]3OC(=O)[C@H](OC(C)=O)[C@@H]24 [ISOBRUCEIN B] | 100 |
| CC1=CC(=O)[C@H](O)[C@@]2(C)[C@@H]1C[C@H]1OC(=O)C(OC(=O)CC3=CCCC3)[C@H]3[C@@H](C)[C@@H](O)[C@]4(O)OC[C@]13[C@@H]42 (some centres not stated) | 40000 |
| CC(=O)O[C@H]1C(=O)O[C@@H]2C[C@H]3C(C)=CC(=O)[C@@H](O)[C@]3(C)[C@H]3[C@]4(O)OC[C@]32[C@@H]1[C@@H](C)[C@H]4O [HOLACANTHONE] | 30 |
| CC1=CC(=O)[C@H](O)[C@@]2(C)[C@@H]1C[C@H]1OC(=O)[C@@H](OC(=O)C(C)(C)CO)[C@@H]3[C@@H](C)[C@@H](O)[C@]4(O)OC[C@@]31[C@@H]42 | 95 |
| CC1=CC(=O)[C@@H](O)[C@]2(C)[C@H]3[C@]4(O)OC[C@]35[C@H]([C@@H](C)[C@H]4O)[C@@H](O)C(=O)O[C@@H]5C[C@@H]12 [GLAUCARUBOLONE] | 290 |
| C/C=C(\C)C(=O)O[C@@H]1[C@H]2C(C)=CC(=O)[C@@H](O)[C@]2(C)[C@H]2[C@@]3(O)OC[C@]24[C@H]([C@@H](C)[C@H]3O)[C@@H](OC(C)=O)C(=O)O[C@H]14 [HANNOAENONE] | 40 |
| COC(=O)[C@@]12OC[C@]34[C@H]([C@@H](O)C1O)[C@@]1(C)CC(=O)C(O)=C(C)[C@@H]1C[C@H]3OC(=O)[C@H](OC(=O)/C=C(/c1ccccc1)C(F)(F)F)[C@H]42 (some centres not stated) | 3600 |
| CC[C@@](O)(CC(=O)O[C@@H]1C(=O)O[C@@H]2C[C@@H]3C(C)=CC(=O)[C@H](O)[C@]3(C)[C@H]3[C@]4(O)OC[C@]32[C@@H]1[C@@H](C)[C@H]4O)C(C)C [PENINSULARINONE] | 1 |
| CC(C)=CC(=O)O[C@@H]1[C@H]2C(C)=CC(=O)[C@@H](O)[C@]2(C)[C@H]2[C@@]3(O)OC[C@@]24[C@@H]1OC(=O)C[C@H]4[C@@H](C)[C@H]3O | 19 |
| C=C1[C@@H](O)[C@]2(O)OC[C@@]34[C@H]1[C@@H](OC(=O)C/C=C/CCCCCCCC)C(=O)O[C@@H]3C[C@H]1C(C)=CC(=O)[C@@H](O)[C@]1(C)[C@@H]24 | 24 |
| COC(=O)[C@@]12OC[C@]34[C@H]([C@@H](O)C1O)[C@@]1(C)CC(=O)C(OC(=O)CC(C)C(F)(F)F)=C(C)[C@@H]1C[C@H]3OC(=O)[C@H](O)[C@H]42 (some centres not stated) | 2900 |
| CC(C)=CC(=O)O[C@H]1C(=O)O[C@@H]2C[C@H]3C(C)=CC(=O)[C@@H](O)[C@]3(C)[C@H]3[C@@]4(O)OC[C@]32[C@@H]1[C@@H](C)[C@H]4O | 21 |
| COC(=O)[C@@]12OC[C@]34[C@H]([C@@H](O)C1O)[C@@]1(C)CC(=O)C(O)=C(C)[C@@H]1C[C@H]3OC(=O)[C@H](OC(=O)CC(C)C(F)(F)F)[C@H]42 (some centres not stated) | 28 |
| C=C1[C@@H](O)[C@@]2(O)OC[C@@]34[C@H]1[C@@H](OC(=O)C/C=C(\C)CCCCC)C(=O)O[C@@H]3C[C@H]1C(C)=CC(=O)[C@@H](O)[C@]1(C)[C@@H]24 | 1.5 |
| COC(=O)[C@]12OC[C@]34[C@H]([C@@H](O)[C@@H]1O)[C@@]1(C)[C@H](O)C(=O)C=C(C)[C@@H]1C[C@H]3OC(=O)[C@H](OC(=O)CC(C)C)[C@@H]24 [ISOBRUCEIN A] | 17 |
| CC[C@@H](C)C(=O)O[C@H]1C(=O)O[C@@H]2C[C@H]3C(C)=CC(=O)[C@@H](O)[C@]3(C)[C@H]3[C@@H](O)[C@H](O)[C@]4(C)OC[C@]32[C@@H]14 [SIMALIKALACTONE D] | 39 |
